SMILES strings stand for the structures.

Consider five compounds from patent publication US9409892B2, “4-hydroxy-isoquinoline compounds as HIF hydroxylase inhibitors” (FIBROGEN, INC., priority 2012, dated 2016).

One assay has as its target PHD1 (EGLN2) (Homo sapiens (Human), UniProt Q96KS0). Put plainly: HIF-PH assay (14CO2 capture), PHD1 enzyme inhibition. The class given is biochemical. Particulars: Table 1; for IC50: individual measurement, read-out: IC50 (μM) PHD1; for PHD2/PHD1: ratio of the IC50 of the compound for each enzyme.
For a further assay, the target named is PHD2 (EGLN1) (Homo sapiens (Human), UniProt Q9GZT9). Put plainly: HIF-PH assay (14CO2 capture), PHD2 enzyme inhibition. The class given is biochemical. Particulars: Table 1; individual measurement; read-out: IC50 (μM) PHD2.
Sequence of PHD2 (EGLN1) (Q9GZT9 whole entry): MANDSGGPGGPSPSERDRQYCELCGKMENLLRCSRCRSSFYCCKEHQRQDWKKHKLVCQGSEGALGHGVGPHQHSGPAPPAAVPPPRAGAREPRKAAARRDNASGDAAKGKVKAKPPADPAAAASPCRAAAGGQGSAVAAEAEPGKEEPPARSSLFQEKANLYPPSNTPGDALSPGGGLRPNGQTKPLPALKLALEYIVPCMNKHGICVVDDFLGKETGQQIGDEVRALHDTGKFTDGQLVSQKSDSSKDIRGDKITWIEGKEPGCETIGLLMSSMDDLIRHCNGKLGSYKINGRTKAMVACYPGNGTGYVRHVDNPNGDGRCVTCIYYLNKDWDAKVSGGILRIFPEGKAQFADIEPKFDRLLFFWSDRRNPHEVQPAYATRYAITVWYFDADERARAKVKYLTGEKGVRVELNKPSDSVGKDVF

Sequence of PHD1 (EGLN2) (Q96KS0 whole entry): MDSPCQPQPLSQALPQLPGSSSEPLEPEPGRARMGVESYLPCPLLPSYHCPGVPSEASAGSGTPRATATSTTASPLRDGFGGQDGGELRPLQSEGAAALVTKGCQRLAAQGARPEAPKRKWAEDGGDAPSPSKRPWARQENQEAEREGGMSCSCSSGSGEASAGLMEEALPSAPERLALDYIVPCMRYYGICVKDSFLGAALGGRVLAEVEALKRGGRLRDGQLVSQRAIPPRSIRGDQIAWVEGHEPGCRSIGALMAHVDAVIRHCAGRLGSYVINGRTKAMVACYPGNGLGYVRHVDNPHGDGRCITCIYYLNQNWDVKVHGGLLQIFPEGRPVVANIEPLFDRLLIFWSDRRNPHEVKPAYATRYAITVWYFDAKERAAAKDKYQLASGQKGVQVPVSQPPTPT

By IC50 is commonly meant the concentration needed to halve the response being measured. In the case of `N#Cc1nc(C(=O)NCC(C(=O)O)C2CC2)c(O)c2ccc(Oc3c(F)cccc3F)cc12` (stereo not drawn) [Compound 180, 3{-[1-Cyano-7-(2,6-difluoro-phenoxy)-4-hydroxy-isoquinoline-3-carbonyl]-amino}-2-cyclopropyl-propionic acid], at PHD1 (EGLN2), the IC50 stood at 4.57 µM and the PHD2/PHD1 was determined as 6. Moreover, on PHD2 (EGLN1), the IC50 is 28.9 µM.

`N#Cc1nc(C(=O)NCC(C(=O)O)c2ccc(F)cc2)c(O)c2ccc(Oc3ccccc3)cc12` (stereo not drawn) [Compound 181, 3-[(1-Cyano-4-hydroxy-7-phenoxy-isoquinoline-3-carbonyl)-amino]-2-(4-fluoro-phenyl)-propionic acid]: at PHD1 (EGLN2), the IC50 is 1.45 µM and the PHD2/PHD1 was found to be 7. Also, the concentration for half-maximal inhibition (IC50) at PHD2 (EGLN1) is 9.45 µM.

On to `N#Cc1nc(C(=O)NCC(C(=O)O)c2ccccc2F)c(O)c2ccc(Oc3ccccc3)cc12` (stereo not drawn) [Compound 182, 3-[(1-Cyano-4-hydroxy-7-phenoxy-isoquinoline-3-carbonyl)-amino]-2-(2-fluoro-phenyl)-propionic acid], for which, at PHD1 (EGLN2), the IC50 turned out to be 1.81 µM and the PHD2/PHD1 worked out at 7. Besides, the concentration for half-maximal inhibition (IC50) on PHD2 (EGLN1) turned out to be 11.9 µM.

With `CC(C)CC(CNC(=O)c1nc(C#N)c2cc(Oc3ccccc3)ccc2c1O)CC(=O)O` (stereo not drawn) [Compound 183, 3-{[(1-Cyano-4-hydroxy-7-phenoxy-isoquinoline-3-carbonyl)-amino]-methyl}-5-methyl-hexanoic acid], the IC50 turned out to be 1.63 µM on PHD1 (EGLN2) and 12.6 µM on PHD2 (EGLN1). The PHD2/PHD1 on PHD1 (EGLN2) turned out to be 8.

In the case of `CC(CCC(=O)O)NC(=O)c1nc(C#N)c2cc(Oc3ccccc3)ccc2c1O` (stereo not drawn) [Compound 184, 4-[(1-Cyano-4-hydroxy-7-phenoxy-isoquinoline-3-carbonyl)-amino]-pentanoic acid], at PHD1 (EGLN2), the 50% inhibitory concentration (IC50) turned out to be 1.38 µM and the PHD2/PHD1 is given as 9. In addition, the IC50 at PHD2 (EGLN1) was 12.6 µM.
